Measured values from ChEMBL document CHEMBL1135948, “A solid-phase approach towards the synthesis of PDE5 inhibitors” (Bioorg Med Chem Lett, 2002).

molecular target: cGMP-specific 3',5'-cyclic phosphodiesterase (Homo sapiens) (UniProt O76074); experiment: Percentage inhibition against phosphodiesterase 5 (PDE5) was determined using [3H]cGMP scintillation proximity assay at concentration of 1 uM

Row | SMILES | inhibition
1 | CC(C)Cn1c(=O)n(Cc2cccc3c2OCO3)c(=O)c2[nH]c(Cc3ccc(Br)cc3)nc21 | 13%
2 | CC(C)Cn1c(=O)n(CO)c(=O)c2[nH]c(Cc3ccc(Br)cc3)nc21 | 88%
3 | CC(C)Cn1c(=O)n(CC(C)(C)C)c(=O)c2[nH]c(Cc3ccc(Br)cc3)nc21 | 35%
4 | CC(C)Cn1c(=O)n(CSc2ccccc2)c(=O)c2[nH]c(Cc3ccc(Br)cc3)nc21 | 15%
5 | CC(C)Cn1c(=O)n(CN)c(=O)c2[nH]c(Cc3ccc(Br)cc3)nc21 | 38%
6 | CC(C)Cn1c(=O)n(C)c(=O)c2[nH]c(Cc3ccc(Br)cc3)nc21 | 93%
7 | CC(C)Cn1c(=O)n(-c2ccncc2)c(=O)c2[nH]c(Cc3ccc(Br)cc3)nc21 | 22%
8 | CC(C)Cn1c(=O)n(CCC2CCCCC2)c(=O)c2[nH]c(Cc3ccc(Br)cc3)nc21 | 42%
9 | CC(C)Cn1c(=O)n(CN(C(C)C)C(C)C)c(=O)c2[nH]c(Cc3ccc(Br)cc3)nc21 | 41%
10 | CCOc1ccccc1-n1c(=O)c2[nH]c(Cc3ccc(Br)cc3)nc2n(CC(C)C)c1=O | 38%
11 | CC(C)Cn1c(=O)n(C2CCC2)c(=O)c2[nH]c(Cc3ccc(Br)cc3)nc21 | 4%
12 | CC(C)Cn1c(=O)n(COc2ccccc2)c(=O)c2[nH]c(Cc3ccc(Br)cc3)nc21 | 33%
13 | CCn1c(=O)c2[nH]c(Cc3ccc(Br)cc3)nc2n(CC(C)C)c1=O | 93%
14 | CC(C)Cn1c(=O)[nH]c(=O)c2[nH]c(Cc3ccc(Br)cc3)nc21 | 42%
15 | CCCn1c(=O)c2[nH]c(Cc3ccc(Br)cc3)nc2n(CC(C)C)c1=O | 57%
16 | CC(C)Cn1c(=O)n(-c2ccccn2)c(=O)c2[nH]c(Cc3ccc(Br)cc3)nc21 | 20%
17 | CC(C)Cn1c(=O)n(-c2cncn2C)c(=O)c2[nH]c(Cc3ccc(Br)cc3)nc21 | 59%
18 | C#Cn1c(=O)c2[nH]c(Cc3ccc(Br)cc3)nc2n(CC(C)C)c1=O | 68%
